This note sets out measurements from patent US20060093553A1, “Cd26-based therapies for cancers and immune disease” (priority 2002, published 2006).

Test [1] concerns CD86 expression on monocytes. The test is described as follows: Surface expression on monocytes (flow cytometry). Format: cell-based, Human. The procedure: (§1) In studies assessing the expression of CD80, CD86, and HLA-DR on purified monocytes (0.5×10^6 monocytes/well), monocytes were preincubated with or without TT (0.5 μg/ml) for 16 h. Following incubation with sCD26 (0.5 μg/ml) for 24 h, FITC-conjugated CD80, CD86, and HLA-DR mAbs (10 μg/ml) were used with PE-conjugated anti-CD14 (10 μg/ml) to gate exclusively on the monocyte population. In experiments assessing the effect of M6P on cellular uptake of sCD26, purified monocytes (0.5×10^6 monocytes/well) were incubated with the appropriate concentration of M6P in the presence or absence of sCD26-OG for 24 h in standard medium. Cells were then washed twice in ice-cold PBS, followed by incubation for 2 min in acidic PBS (pH 3.0) to strip any sCD26-OG attached to the cell surface. Cells were washed in ice-cold PBS and were incubated with mouse Ig isotypes (1 μg/ml) to block nonspecific binding; this was followed by reaction with PE-conjugated anti-CD14 (10 μg/ml) to gate exclusively on monocyte population.
(§2) Flow cytometric analysis of 10,000 viable cells was conducted on FACSCalibur (BD Biosciences, Mountain View, Calif.). Each experiment was repeated at least three times, and the results were provided in the form of a histogram of a representative experiment, or increased mean percent±SE fluorescent intensity compared with control or untreated cells.

Test [2] relates to HLA-DR expression on monocytes. Put plainly: Surface expression on monocytes (flow cytometry). Format: cell-based, Human. The procedure: as §1, §2
In general terms: Flow cytometry measures light scatter and fluorescence of single cells or particles in a stream.

Test [3] relates to CD80 expression on monocytes. Put plainly: Surface expression on monocytes (flow cytometry). Format: cell-based, Human. The protocol: as §1, §2
The test system of test [4] is nontransfected control (parental) Jurkat cells. Put plainly: Cell cycle analysis (propidium iodide staining). To be noted: 24 h; for % G0/G1 / % G2/M / % S: Parental Jurkat; for Percentage G0G1 / Percentage G2/M / Percentage S: Control Jurkat.
The subject of test [5] is wild-type CD26-transfected Jurkat cell lines (wtCD26). The test is described as follows: Cell cycle analysis (propidium iodide staining). To be noted: 24 h; for % G0/G1 / % G2/M / % S: wtCD26 transfectant; for Percentage G0G1 / Percentage G2/M / Percentage S: WtCD26 transfectant.
Test [6] relates to 340-4 mutant CD26-positive/DPPIV-positive Jurkat transfectant. The test is described as follows: Cell cycle analysis (propidium iodide staining). Format: cell-based, Human. To be noted: 24 h, 340-4 transfectant.
The test system of test [7] is S630A mutant CD26-positive/DPPIV-negative Jurkat transfectant. Put plainly: Cell cycle analysis (propidium iodide staining). To be noted: 24 h.
Test [8] concerns wtCD26 Jurkat transfectants. Put plainly: MTT uptake (cell growth) assay. Format: cell-based, Human. The protocol: (§3) Cell growth assay was performed as described previously (Hansen et al., 1989). Cells were incubated in microplates in the presence of culture media alone, culture media and […] (50 μg/ml), culture media and doxorubicin at the indicated concentrations, or culture media, […]), and doxorubicin at the indicated concentrations, for a total volume of 100 μl (50,000 cells/well). After 48 h of incubation at 37° C., 25 μl of MTT was added to the wells at a final concentration of 1 mg/ml. The microplates were then incubated for 2 h at 37° C., followed by the addition of 100 μl of extraction buffer. After overnight incubation at 37° C., A570/nm measurements at 570 nm were performed, with the SE of the triplicate wells being less than 15%. MTT Assay. Cell growth assay was performed as described previously (Aytac et al., 2001). […] Following 36-48 h of incubation at 37° C., 25 ul of MET was added to the wells at a final concentration of 1 mg/ml. The microplates were then incubated for 2 h at 37° C., followed by the addition of 100 ul of extraction buffer. Following overnight incubation at 37° C., OD measurements at 570 nm were performed, with the standard errors of the mean of the triplicate wells being less than 15%. Cytotoxicity index was calculated as follows: [formula]

In test [9] the test system is S630A Jurkat transfectants. Put plainly: MTT uptake (cell growth) assay. Format: cell-based, Human. The procedure: as §3
Test [10] concerns 340-4 Jurkat transfectants. Put plainly: Annexin V/PI apoptosis assay. Format: cell-based, Human. The protocol:
(§4) Annexin/PI Assays. Exposure of phosphatidylserine residues was quantified by surface annexin V staining as previously described (Vermes et al., 1995; […] and Pollard, 1994; Martin et al., 1995)). Briefly, cells were washed in binding buffer (10 mM HEPES, pH 7.4, 2.5 mM CaCl2, 140 mM NaCl), resuspended in 100 μl and incubated with 0.5 μl/ml annexin V-fluoresencein isothiocyanate (FITC) and 2.5 μg/ml propiodium iodide (PI) for 15 minutes in the dark. Cells were then washed again and resuspended in 400 μl of binding buffer, then flow cytometric analysis (FACScan; Becton Dickinson) was performed. Ten thousand cells were acquired per sample using Cellquest software and data were analyzed with the Paint-a-gate software (Becton Dickinson).

The test system of test [11] is wtCD26 Jurkat transfectants. The test is described as follows: Annexin V/PI apoptosis assay. Format: cell-based, Human. The protocol:
as §4

Test [12] deals with 340-4 Jurkat transfectants. The test is described as follows: MTT uptake (cell growth) assay. Format: cell-based, Human. To be noted: 340-4 transfectants, similar to wtCD26; 48 h; FIG. 1.
In the next test the target is T1, M6P/IGF-IIR on monocytes (Homo sapiens, UniProt P11717).
T1 construct: endogenous in cells; host or cells: purified peripheral blood monocytes
T1 sequence (P11717 41-2491): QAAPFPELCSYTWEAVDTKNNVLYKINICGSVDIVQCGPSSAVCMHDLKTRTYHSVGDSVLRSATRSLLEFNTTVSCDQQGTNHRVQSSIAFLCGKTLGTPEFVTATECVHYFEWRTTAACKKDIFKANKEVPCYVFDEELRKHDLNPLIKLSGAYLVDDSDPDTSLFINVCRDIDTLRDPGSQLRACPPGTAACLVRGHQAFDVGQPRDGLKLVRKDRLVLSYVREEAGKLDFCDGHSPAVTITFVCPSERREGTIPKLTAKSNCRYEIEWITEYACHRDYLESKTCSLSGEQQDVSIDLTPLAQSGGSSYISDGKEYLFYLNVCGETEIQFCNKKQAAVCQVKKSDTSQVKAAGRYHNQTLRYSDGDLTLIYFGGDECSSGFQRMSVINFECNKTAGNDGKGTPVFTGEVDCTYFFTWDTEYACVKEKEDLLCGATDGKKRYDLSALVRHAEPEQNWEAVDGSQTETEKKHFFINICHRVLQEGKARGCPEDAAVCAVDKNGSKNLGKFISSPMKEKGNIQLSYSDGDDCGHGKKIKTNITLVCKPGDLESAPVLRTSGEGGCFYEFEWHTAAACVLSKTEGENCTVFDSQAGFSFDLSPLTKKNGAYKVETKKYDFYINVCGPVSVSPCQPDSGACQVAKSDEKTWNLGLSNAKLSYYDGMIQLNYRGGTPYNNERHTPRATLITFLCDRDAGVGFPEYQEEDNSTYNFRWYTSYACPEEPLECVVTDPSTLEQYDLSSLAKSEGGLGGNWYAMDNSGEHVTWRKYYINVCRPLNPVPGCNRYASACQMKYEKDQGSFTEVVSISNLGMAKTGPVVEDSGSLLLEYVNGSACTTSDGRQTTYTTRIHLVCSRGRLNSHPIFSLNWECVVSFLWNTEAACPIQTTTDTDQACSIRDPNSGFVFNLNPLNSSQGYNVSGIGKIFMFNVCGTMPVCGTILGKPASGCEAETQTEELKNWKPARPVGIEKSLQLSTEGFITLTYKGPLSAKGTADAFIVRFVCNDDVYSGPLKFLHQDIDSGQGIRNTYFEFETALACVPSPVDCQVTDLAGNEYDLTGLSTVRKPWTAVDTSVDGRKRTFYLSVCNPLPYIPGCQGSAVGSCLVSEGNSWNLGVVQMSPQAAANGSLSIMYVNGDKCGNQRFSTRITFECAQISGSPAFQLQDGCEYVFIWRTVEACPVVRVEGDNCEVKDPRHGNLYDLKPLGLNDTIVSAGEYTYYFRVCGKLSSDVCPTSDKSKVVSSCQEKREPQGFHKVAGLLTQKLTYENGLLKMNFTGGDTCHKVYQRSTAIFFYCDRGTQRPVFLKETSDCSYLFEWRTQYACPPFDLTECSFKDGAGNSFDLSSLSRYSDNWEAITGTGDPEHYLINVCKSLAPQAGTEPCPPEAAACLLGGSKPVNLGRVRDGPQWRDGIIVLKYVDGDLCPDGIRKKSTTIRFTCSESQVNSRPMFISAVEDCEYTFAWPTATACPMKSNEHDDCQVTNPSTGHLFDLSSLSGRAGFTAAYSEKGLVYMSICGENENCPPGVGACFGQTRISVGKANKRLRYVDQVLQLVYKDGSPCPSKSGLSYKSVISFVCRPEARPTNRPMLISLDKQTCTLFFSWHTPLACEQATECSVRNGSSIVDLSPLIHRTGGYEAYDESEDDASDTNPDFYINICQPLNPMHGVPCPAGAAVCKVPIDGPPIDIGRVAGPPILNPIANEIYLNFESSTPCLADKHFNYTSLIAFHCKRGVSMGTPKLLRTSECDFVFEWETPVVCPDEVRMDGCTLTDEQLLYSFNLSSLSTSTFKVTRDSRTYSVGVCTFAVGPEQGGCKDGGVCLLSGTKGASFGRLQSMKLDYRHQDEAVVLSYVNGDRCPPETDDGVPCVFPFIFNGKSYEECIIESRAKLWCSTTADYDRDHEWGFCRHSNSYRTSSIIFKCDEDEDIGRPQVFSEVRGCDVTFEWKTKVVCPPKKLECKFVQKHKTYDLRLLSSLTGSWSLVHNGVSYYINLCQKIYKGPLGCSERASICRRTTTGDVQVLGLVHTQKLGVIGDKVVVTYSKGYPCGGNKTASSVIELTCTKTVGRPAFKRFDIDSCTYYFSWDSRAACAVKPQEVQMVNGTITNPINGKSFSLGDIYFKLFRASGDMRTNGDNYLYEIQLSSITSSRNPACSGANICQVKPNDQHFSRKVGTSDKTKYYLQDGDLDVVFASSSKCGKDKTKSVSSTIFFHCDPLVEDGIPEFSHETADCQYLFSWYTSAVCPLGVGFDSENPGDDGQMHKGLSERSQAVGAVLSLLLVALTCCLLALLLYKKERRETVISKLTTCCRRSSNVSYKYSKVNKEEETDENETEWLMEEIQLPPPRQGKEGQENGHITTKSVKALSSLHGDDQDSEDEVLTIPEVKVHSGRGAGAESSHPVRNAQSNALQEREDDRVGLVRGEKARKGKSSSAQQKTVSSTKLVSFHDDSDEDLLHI
Put plainly: Inhibition of sCD26 uptake into monocytes by M6P (FACS). To be noted: M6P 0, 0.1, 1.0, and 10 μM; concentration dependent; with or without TT; FIGS. 11A, 11B. Format: cell-based. The protocol:
as §1

[13] abbreviates: AIM V serum-free media, Doxorubicin 0.10 uM.
Where [14] appears, read: AIM V serum-free media, Doxorubicin 0.25 uM.
The mark [15] stands for this setting: Doxorubicin 0.01 μM, S63A transfectant.
[16] abbreviates: Doxorubicin 0.05 μM, S630A transfectant.
Setting [17] is: AIM V serum-free media, Etoposide 0.25 uM.
Setting [18] is: AIM V serum-free media, Etoposide 0.50 uM.
Where [19] appears, read: Etoposide 0.10 uM, S630A transfectant.
Setting [20] is: Etoposide 0.25 uM, S630A transfectant.

On to TT: recall antigen tetanus toxoid, for which the “% Increase of CD86 expression on monocytes” value in [1] is 1.2 ± 2%. In addition, the “% Increase of HLA-DR expression on monocytes” value in [2] is listed as 0.3 ± 0.2%. The “% Increase of CD80 expression on monocytes” value in [3] is reported as 2.0 ± 0.4%.
In the case of `COc1cccc2c1C(=O)c1c(O)c3c(c(O)c1C2=O)C[C@@](O)(C(=O)CO)C[C@@H]3O[C@H]1C[C@H](N)[C@H](O)[C@H](C)O1` [Doxorubicin], the “% G0/G1” value worked out at 43% in [4] (setting [13]), 36% in [4] (setting [14]), 31% in test [5] (setting [13]) and 14% in test [5] (setting [14]). Moreover, the “% G2/M” value in test [4] (setting [13]) is listed as 27%; in test [4] (setting [14]), 41%; in [5] (setting [13]) it was 49%; in [5] (setting [14]), 74%. In addition, the “% S” value in test [4] (setting [13]) worked out at 30%; in [4] (setting [14]), 23%; in test [5] (setting [13]), 20%; in test [5] (setting [14]), 12%. Also, the “Percentage G0G1” value in [4] (Doxorubicin 0.01 μM) is reported as 40%; in [4] (Doxorubicin 0.05 μM), 32%; in test [5] (Doxorubicin 0.01 μM), 11%; in test [5] (Doxorubicin 0.05 μM), 6%; in test [6] (Doxorubicin 0.01 μM) it was 25%; in test [6] (Doxorubicin 0.05 μM), 11%. Besides, the “Percentage G0G1” value in test [7] (setting [15]) is reported as 33%; in test [7] (setting [16]) it was 27%. In addition, the “Percentage G2/M” value stood at 34% in test [4] (Doxorubicin 0.01 μM); 37% in [4] (Doxorubicin 0.05 μM); 62% in [5] (Doxorubicin 0.01 μM); 69% in [5] (Doxorubicin 0.05 μM); 50% in test [6] (Doxorubicin 0.01 μM); 78% in test [6] (Doxorubicin 0.05 μM). Moreover, the “Percentage G2/M” value in test [7] (setting [15]) turned out to be 35%; in test [7] (setting [16]), 38%. Moreover, the “Percentage S” value in test [4] (Doxorubicin 0.01 μM) was 26%; in test [4] (Doxorubicin 0.05 μM), 31%; in [5] (Doxorubicin 0.01 μM) it was 27%; in test [5] (Doxorubicin 0.05 μM) it was 25%; in test [6] (Doxorubicin 0.01 μM), 25%; in test [6] (Doxorubicin 0.05 μM), 11%. In addition, the “Percentage S” value in test [7] (setting [15]) was determined as 32%; in [7] (setting [16]), 35%. Besides, the “doxorubicin-mediated growth inhibition (MTT), sensitivity” value in [8] (wtCD26 compared with parental (control) or vector only (neo) Jurkat cells, 48 h, FIG. 1) is listed as “markedly increased sensitivity”; in [9] (S630A transfectants, 48 h, FIG. 1), “less sensitive”; in test [12], “greater doxorubicin sensitivity”. Moreover, the “doxorubicin-induced apoptosis (Annexin V/PI)” value in [10] (340-4 compared with parental or S630A Jurkat, 16 hours, FIG. 15B) is “greater apoptosis”; in [11] (wtCD26 compared with parental or S630A Jurkat, 16 hours, FIG. 15B) it was “greater apoptosis”.
Turning to `COc1cc([C@@H]2c3cc4c(cc3[C@@H](O[C@@H]3O[C@@H]5CO[C@@H](C)O[C@H]5[C@H](O)[C@H]3O)[C@H]3COC(=O)[C@H]23)OCO4)cc(OC)c1O` [Etoposide], the “% G0/G1” value in [4] (setting [17]) is reported as 51%; in test [4] (setting [18]), 36%; in test [4] (Etoposide 0.10 uM), 41%; in [4] (Etoposide 0.25 uM) it was 27%; in [5] (setting [17]), 34%; in test [5] (setting [18]), 18%. Moreover, the “% G0/G1” value in [5] (Etoposide 0.10 uM) was found to be 25%; in test [5] (Etoposide 0.25 uM) it was 12%; in test [7] (setting [19]), 34%; in test [7] (setting [20]), 22%. Further, the “% G2/M” value is given as 19% in [4] (setting [17]); 36% in test [4] (setting [18]); 21% in [4] (Etoposide 0.10 uM); 41% in [4] (Etoposide 0.25 uM); 43% in [5] (setting [17]); 64% in test [5] (setting [18]). For the same compound, the “% G2/M” value in [5] (Etoposide 0.10 uM) worked out at 56%; in test [5] (Etoposide 0.25 uM), 69%; in [7] (setting [19]), 29%; in test [7] (setting [20]) it was 48%. Also, the “% S” value in [4] (setting [17]) was 30%; in test [4] (setting [18]), 28%; in test [4] (Etoposide 0.10 uM), 38%; in [4] (Etoposide 0.25 uM), 32%; in test [5] (setting [17]), 23%; in [5] (setting [18]) it was 18%. Also, the “% S” value in [5] (Etoposide 0.10 uM) came out at 19%; in [5] (Etoposide 0.25 uM), 19%; in [7] (setting [19]), 37%; in [7] (setting [20]) it was 30%. Besides, the “etoposide-mediated growth inhibition (MTT), sensitivity” value in test [8] (wtCD26 compared to parental cells, FIG. 5) is “significantly increased sensitivity”; in test [9] (S630A compared to wtCD26 transfectants, FIG. 5) it was “less sensitive”. For the same compound, the “etoposide-induced apoptosis (Annexin V/PI)” value in test [10] (340-4 transfectants, similar to wtCD26, 14 hours, FIG. 15A) is given as “higher level of drug-induced apoptosis”; in test [11] (wtCD26 vs S630A or parental control Jurkat, 14 hours, FIG. 15A), “more sensitive to the apoptotic effect”.
`O=P(O)(O)OC[C@H]1OC(O)[C@@H](O)[C@@H](O)[C@@H]1O` (stereo partly shown) [M6P]: on M6P/IGF-IIR on monocytes, the “uptake of sCD26 into monocytes” value was “inhibited the uptake of sCD26 into monocytes”.
